Target: T1, HDAC6 human recombinant (Homo sapiens, UniProt Q9UBN7)
T1 sequence (Q9UBN7 1-1215): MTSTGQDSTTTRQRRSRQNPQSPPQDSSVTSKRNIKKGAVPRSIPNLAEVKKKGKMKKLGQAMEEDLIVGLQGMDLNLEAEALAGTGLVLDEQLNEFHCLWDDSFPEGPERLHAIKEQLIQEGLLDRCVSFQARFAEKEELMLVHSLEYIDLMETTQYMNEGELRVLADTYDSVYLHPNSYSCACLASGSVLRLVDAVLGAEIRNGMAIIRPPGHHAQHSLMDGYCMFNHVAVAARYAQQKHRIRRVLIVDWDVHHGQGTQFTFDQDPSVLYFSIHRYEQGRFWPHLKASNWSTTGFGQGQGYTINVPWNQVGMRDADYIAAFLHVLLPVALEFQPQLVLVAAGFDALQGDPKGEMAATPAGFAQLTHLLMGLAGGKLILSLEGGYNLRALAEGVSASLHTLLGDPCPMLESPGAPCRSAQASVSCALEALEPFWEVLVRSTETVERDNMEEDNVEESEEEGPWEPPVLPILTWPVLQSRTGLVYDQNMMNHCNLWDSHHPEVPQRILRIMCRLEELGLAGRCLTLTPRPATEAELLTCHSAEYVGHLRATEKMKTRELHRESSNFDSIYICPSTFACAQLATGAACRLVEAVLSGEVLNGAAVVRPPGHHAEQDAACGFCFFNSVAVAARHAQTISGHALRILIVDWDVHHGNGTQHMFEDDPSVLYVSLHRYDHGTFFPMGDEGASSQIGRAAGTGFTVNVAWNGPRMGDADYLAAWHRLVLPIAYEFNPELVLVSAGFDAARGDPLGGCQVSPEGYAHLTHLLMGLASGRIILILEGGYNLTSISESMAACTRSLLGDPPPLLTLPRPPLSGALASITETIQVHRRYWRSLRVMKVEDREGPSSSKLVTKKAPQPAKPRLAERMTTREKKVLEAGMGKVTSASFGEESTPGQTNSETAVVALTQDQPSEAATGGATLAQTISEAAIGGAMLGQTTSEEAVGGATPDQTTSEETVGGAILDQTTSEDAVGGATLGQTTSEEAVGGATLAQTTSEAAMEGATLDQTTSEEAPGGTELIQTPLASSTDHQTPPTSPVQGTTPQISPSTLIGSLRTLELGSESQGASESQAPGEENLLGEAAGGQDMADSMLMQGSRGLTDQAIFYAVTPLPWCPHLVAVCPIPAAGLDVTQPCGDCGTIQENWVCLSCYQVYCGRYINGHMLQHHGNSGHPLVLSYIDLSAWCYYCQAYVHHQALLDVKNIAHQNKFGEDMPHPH
Experiment: HDAC enzyme activity inhibition (in vitro), fluorimetric HDAC6 assay
Type: biochemical
Conditions: samples at 0.1, 1, 10, 100 and 1000 nM, 37° C. 60 minutes, fluorescence Ex 390, Em 460
Protocol: To identify this, HDAC1/6 enzyme selectivity and cell selectivity (HDAC1: histone acetylation/HDAC6: tubulin acetylation) were investigated accordingly.
An HDAC enzyme inhibitory ability of a test material was measured by means of HDAC1 Fluorimetric Drug Discovery Assay Kit (Enzolifesciences: BML-AK511) and HDAC6 human recombinant (Calbiochem: 382180). For an HDAC1 assay, samples were treated at a concentration of 100, 1000 and 10000 nM. For an HDAC6 assay, samples were treated at a concentration of 0.1, 1, 10, 100 and 1000 nM. After such sample treatment, a reaction was continued at 37° C. for 60 minutes, then treated with a developer, and then subjected to reaction at 37° C. for 30 minutes, after which fluorescence intensity (Ex 390, Em 460) was measured by means of FlexStation3 (Molecular device).

Compound	IC50
CC(C)=CCn1ccc(-c2nnc(C(F)(F)F)o2)cc1=O [Compound 48, 1-(3-methylbut-2-en-1-yl)-4-(5-(trifluoromethyl)-1,3,4-oxadiazole-2-yl)pyridine-2(1H)-one]	1670 nM
O=C(Cn1ccc(-c2nnc(C(F)F)o2)cc1=O)c1ccc2c(c1)OCCO2 [Compound 21]	381 nM
O=C(C(Cn1ccc(-c2nnc(C(F)F)o2)cc1=O)c1ccccc1)N1CCOCC1 (centres unmarked) [Compound 45, 4-(5-(difluoromethyl)-1,3,4-oxadiazole-2-yl)-1-(3-morpholino-3-oxo-2-phenylpropyl)pyridine-2(1H)-one]	290 nM
O=C(OCCn1ccc(-c2nnc(C(F)F)o2)cc1=O)c1ccccc1 [Compound 16, 2-(4-(5-(difluoromethyl)-1,3,4-oxadiazole-2-yl)-2-oxopyridine-1(2H)-yl)ethyl]	952 nM
O=c1cc(-c2nnc(C(F)F)o2)ccn1Cc1cccc(F)c1 [Compound 14, 4-(5-(difluoromethyl)-1,3,4-oxadiazole-2-yl)-1-(3-fluorobenzyl)pyridine-2(1H)-one]	108 nM
O=C(Cn1ccc(-c2nnc(C(F)(F)F)o2)cc1=O)c1ccc(Cl)s1 [Compound 37, 1-(2-(5-chlorothiophene-2-yl)-2-oxoethyl)-4-(5-(trifluoromethyl)-1,3,4-oxadiazole-2-yl)pyridine-2(1H)-one]	1300 nM
O=C(N[C@@H](Cn1ccc(-c2nnc(C(F)F)o2)cc1=O)c1ccccc1)N1CCS(=O)(=O)CC1 [Compound 58, (R)—N-(2-(4-(5-(difluoromethyl)-1,3,4-oxadiazole-2-yl)-2-oxopyridine-1(2H)-yl)-1-phenylethyl)thiomorpholine-4-carboxamide 1,1-dioxide]	358 nM
CC(C)CCn1ccc(-c2nnc(C(F)F)o2)cc1=O [Compound 53]	388 nM
O=c1cc(-c2nnc(C(F)(F)F)o2)ccn1Cc1cccc(F)c1 [Compound 31, 1-(3-fluorobenzyl)-4-(5-(trifluoromethyl)-1,3,4-oxadiazole-2-yl)pyridine-2(1H)-one]	1100 nM
CCn1ccc(-c2nnc(C(F)(F)F)o2)cc1=O [Compound 49, 1-ethyl-4-(5-(trifluoromethyl)-1,3,4-oxadiazole-2-yl)pyridine-2(1H)-one]	1590 nM
O=C(Cn1ccc(-c2nnc(C(F)(F)F)o2)cc1=O)c1ccc2ccccc2c1 [Compound 41, 1-(2-(naphthalene-2-yl)-2-oxoethyl)-4-(5-(trifluoromethyl)-1,3,4-oxadiazole-2-yl)pyridine-2(1H)-one]	5180 nM
O=c1cc(-c2nnc(C(F)F)o2)ccn1Cc1ccc([N+](=O)[O-])cc1 [Compound 26, 4-(5-(difluoromethyl)-1,3,4-oxadiazole-2-yl)-1-(4-nitrobenzyl)pyridine-2(1H)-one]	272 nM
Cc1cc(C(=O)Cn2ccc(-c3nnc(C(F)F)o3)cc2=O)c(F)cc1Cl [Compound 23, 1-(2-(4-chloro-2-fluoro-5-methylphenyl)-2-oxoethyl)-4-(5-(difluoromethyl)-1,3,4-oxadiazole-2-yl)pyridine-2(1H)-one]	598 nM
O=c1cc(-c2nnc(C(F)F)o2)ccn1C/C=C/c1ccccc1 [Compound 5, 1-cinnamyl-4-(5-(difluoromethyl)-1,3,4-oxadiazole-2-yl)pyridine-2(1H)-one]	40 nM
CCC(CC)Cn1ccc(-c2nnc(C(F)F)o2)cc1=O [Compound 27, 4-(5-(difluoromethyl)-1,3,4-oxadiazole-2-yl)-1-(2-ethylbutyl)pyridine-2(1H)-one]	726 nM
O=C(Cn1ccc(-c2nnc(C(F)(F)F)o2)cc1=O)c1ccccc1 [Compound 42, 1-(2-oxo-2-phenylethyl)-4-(5-(trifluoromethyl)-1,3,4-oxadiazole-2-yl)pyridine-2(1H)-one]	1910 nM

Compound	IC50
O=C(Cn1ccc(-c2nnc(C(F)F)o2)cc1=O)c1ccc(Cl)c(Cl)c1 [Compound 18, 1-(2-(3,4-dichlorophenyl)-2-oxoethyl)-4-(5-(difluoromethyl)-1,3,4-oxadiazole-2-yl)pyridine-2(1H)-one]	509 nM
CCn1ccc(-c2nnc(C(F)F)o2)cc1=O [Compound 55, 4-(5-(difluoromethyl)-1,3,4-oxadiazole-2-yl)-1-ethylpyridine-2(1H)-one]	284 nM
COc1ccc(C(=O)Cn2ccc(-c3nnc(C(F)F)o3)cc2=O)c(OC)c1 [Compound 20, 4-(5-(difluoromethyl)-1,3,4-oxadiazole-2-yl)-1-(2-(2,4-dimethoxyphenyl)-2-oxoethyl) pyridine-2(1H)-one]	257 nM
COc1cccc(C(=O)Cn2ccc(-c3nnc(C(F)F)o3)cc2=O)c1 [Compound 22, 4-(5-(difluoromethyl)-1,3,4-oxadiazole-2-yl)-1-(2-(3-methoxyphenyl)-2-oxoethyl)pyridine-2(1H)-one]	427 nM
O=C(Cn1ccc(-c2nnc(C(F)F)o2)cc1=O)c1coc2ccccc12 [Compound 51, 1-(2-(benzofuran-3-yl)-2-oxoethyl)-4-(5-(difluoromethyl)-1,3,4-oxadiazole-2-yl)pyridine-2(1H)-one]	284 nM
O=C1c2ccccc2C(=O)N1CCCCn1ccc(-c2nnc(C(F)F)o2)cc1=O [Compound 29, 2-(4-(4-(5-(difluoromethyl)-1,3,4-oxadiazole-2-yl)-2-oxopyridine-1(2H)-yl)butyl)isoindoline-1,3-dione]	261 nM
C=C(C)Cn1ccc(-c2nnc(C(F)F)o2)cc1=O [Compound 52, 4-(5-(difluoromethyl)-1,3,4-oxadiazole-2-yl)-1-(2-methylallyl)pyridine-2(1H)-one]	377 nM
COc1ccc(OC)c(C(=O)Cn2ccc(-c3nnc(C(F)F)o3)cc2=O)c1 [Compound 24, 4-(5-(difluoromethyl)-1,3,4-oxadiazole-2-yl)-1-(2-(2,5-dimethoxyphenyl)-2-oxoethyl) pyridine-2(1H)-one]	284 nM
O=c1cc(-c2nnc(C(F)F)o2)ccn1Cc1ccc2ccccc2c1 [Compound 1, 4-(5-(difluoromethyl)-1,3,4-oxadiazole-2-yl)-1-(naphthalene-2-ylmethyl)pyridine-2(1H)-one]	82 nM
O=c1cc(-c2nnc(C(F)F)o2)ccn1Cc1cc(F)c(F)cc1F [Compound 13, 4-(5-(difluoromethyl)-1,3,4-oxadiazole-2-yl)-1-(2,4,5-trifluorobenzyl)pyridine-2(1H)-one]	306 nM
O=C(Cn1ccc(-c2nnc(C(F)F)o2)cc1=O)c1cccs1 [Compound 50, 4-(5-(difluoromethyl)-1,3,4-oxadiazole-2-yl)-1-(2-oxo-2-(thiophene-2-yl)ethyl)pyridine-2(1H)-one]	238 nM
COc1cc(CCn2ccc(-c3nnc(C(F)F)o3)cc2=O)cc(OC)c1 [Compound 8, 4-(5-(difluoromethyl)-1,3,4-oxadiazole-2-yl)-1-(3,5-dimethoxyphenethyl)pyridine-2(1H)-one]	253 nM
O=C(Cn1ccc(-c2nnc(C(F)F)o2)cc1=O)c1ccc([N+](=O)[O-])cc1 [Compound 25, 4-(5-(difluoromethyl)-1,3,4-oxadiazole-2-yl)-1-(2-(4-nitrophenyl)-2-oxoethyl)pyridine-2(1H)-one]	239 nM
O=C(Cn1ccc(-c2nnc(C(F)(F)F)o2)cc1=O)c1ccc(Cl)cc1 [Compound 34, 1-(2-(4-chlorophenyl)-2-oxoethyl)-4-(5-(trifluoromethyl)-1,3,4-oxadiazole-2-yl)pyridine-2(1H)-one]	2320 nM
O=C(Cn1ccc(-c2nnc(C(F)F)o2)cc1=O)c1ccccc1 [Compound 3, 4-(5-(difluoromethyl)-1,3,4-oxadiazole-2-yl)-1-(2-oxo-2-phenylethyl)pyridine-2(1H)-one]	210 nM
O=c1cc(-c2nnc(C(F)F)o2)ccn1CCC1OCCCO1 [Compound 9, 1-(2-(1,3-dioxane-2-yl)ethyl)-4-(5-(difluoromethyl)-1,3,4-oxadiazole-2-yl)pyridine-2(1H)-one]	247 nM
